Source: US20110166195A1, “METHOD FOR THE FORMATION OF MEGAMITOCHONDRIA” (priority 2008, published 2011)
“Also recorded” adds a separate entry of the source. Where a name gives a salt, the structure may show the parent alone.

Columns and labels:
143B.TK−K7gm cells [1] = assay: Formation of megamitochondria in drug-treated cells (fluorescence/confocal microscopy of EGFP-Mito); format: cell-based, Human
Description: (A) 24 h after seeding 143B.TK^−K7gm cells were incubated with 10 μM CCCP (A A1), 10 μM valinomycin (A A2, B) or 1 μM nigericin (A A3) for 18 h.
(§1) (A) 143B.TK^−K7gm cells stained with EGFP-Mito were treated with 4 μM cytochalasin B (A1, A2, B1, B2) at different cultivation times for 9-15 hours or an equivalent amount of solvent as control (A3, A4, B3, B4). Staining of actin cytoskeleton was achieved by Alexa Fluor […] phalloidin in fixed cells (A2, B2, A4, B4). Arrow heads indicate round areas in the cytoplasm observable by actin staining after 62 hours cultivation time.
143B.TK^−K7gm cells were treated with 10 μM nocodazol at different cultivation times for 9-15 hours (A1, A2, B1, B2) or as control with an equivalent amount solvent (A3, A4, B3, B4). The morphology of mitochondria is shown by in vivo EGFP-Mito-staining in the images A1, B1, C1, A3, B3, C3. The staining of tubulin cytoskeleton was performed by an antibody against alpha-tubulin and a Cy3-coupled secondary antibody in fixed cells (A2, B2, A4, B4). Calibration bars correspond to 10 μm.
(§2) Drugs (final concentrations 6-10 μM nocodazol, 2.4-4 μM cytochalasin B, 10 μM CCCP, 10 μM valinomycin and 1 μM nigericin) were added to standard culture medium at different stages of megamitochondria development.
(§3) To avoid a cross talk in excitation of multiple stained compounds always a sequential scanning mode was used in confocal microscopy.
To investigate the influence of the mitochondrial membrane potential on the formation and back formation of the megamitochondria 143B.TK^−K7gm cells were incubated with 10 μM CCCP (H^+ ionophore), 10 μM valinomycin (K^+ selective ionophore) and 1 μM nigericin (selective electron neutral K^+/H^+ exchange) (FIG. 4).
(§4) To observe the influence of the tubulin or actin cytoskeleton, respectively, on the formation of megamitochondria 143B.TK^−K7 gm cells were incubated with 10 μM nocodazol or […] cytochalasin B for 9-15 hours.

[2] = system: 143B.TK−K7gm cells with megamitochondria; assay: Back-formation of megamitochondria after exchange of acidic medium in drug-treated cells; format: cell-based, Human; conditions: fresh medium also with drug; for back-formation of megamitochondria (mitochondrial morphology after medium exchange): 10 μM CCCP, 10 μM valinomycin or 1 μM nigericin for 30 minutes, analysed 60 minutes after medium exchange; for back-formation of megamitochondria: 6 μM nocodazol or 2.4 mM cytochalasin B for 3 hours, observed one and three hours after medium exchange
Description: (C) 143B.TK^−K7gm cells with megamitochondria were incubated with 10 μM CCCP (C A1, B1), 10 μM valinomycin (C A2, B2) or 1 μM nigericin (C A3, B3) for 30 minutes. 60 Minutes after medium exchange (ME) the mitochondrial morphology was analysed. Untreated controls are shown in A A4 and C A4, B4. Calibration marks correspond to 10 μm.
(B) The influence of the actin cytoskeleton on the back-formation of megamitochondria in 143B.TK^−K7gm cells was tested by treatment with 2.4 μM cytochalasin B (A1, A2, C1, D1) or an an equivalent amount of solvent as control (B1, B2, C2, D2) for 3 hours. Mitochondrial morphology was analyzed one (C1, C2) or three hours (D1, D2) after medium exchange. Staining of action cytoskeleton was carried out by Alexa Fluor […] phalloidin in fixed cells (A2, B2).
143B.TK^−K7gm cells with megamitochondria were incubated for 3 hours with 6 μM nocodazol (A1, A2, C1, D1) or as control with an equivalent amount solvent (B1, B2, C2, D2). The analysis of mitochondrial changes in structure were carried out 1 hour (C1, C2) or 3 hours (D1, D2) after the exchange of acidic medium. Arrow heads indicate abnormal ring shaped mitochondrial structures persisting for at least 3 hours. Calibration bars correspond to 10 μm.
as §2, §3
To investigate the influence of the different chemicals on the back-formation of megamitochondria the cells were incubated with indicated concentrations of CCCP, valinomycin and nigericin for 30 minutes (FIG. 4C).
The influence of tubulin and actin cytoskeleton inhibition on back-formation of megamitochondria was performed with 143B.TK^− K7 gm cells with megamitochondria 3 hours after incubating the cells with 6 μM nocodazol or […] cytochalasin B. After changing the used acidic medium and its replacement by fresh medium also completed by the drugs structural changes of mitochondria were observed one hour and three hours later.

tubulin polymerisation = assay: Immunocytochemical staining of tubulin cytoskeleton with antibody against alpha-tubulin; format: cell-based, Human; conditions: 10 μM nocodazol for 9-15 hours, 143B.TK−K7gm cells
Description: 143B.TK^−K7gm cells were treated with 10 μM nocodazol at different cultivation times for 9-15 hours (A1, A2, B1, B2) or as control with an equivalent amount solvent (A3, A4, B3, B4). […] The staining of tubulin cytoskeleton was performed by an antibody against alpha-tubulin and a Cy3-coupled secondary antibody in fixed cells (A2, B2, A4, B4).
Cells grown on cover slips were treated as indicated, fixed with methanol (−20° C.) for 5 min and permeabilized with 0.2% Triton X-100 in PBS for 5 min at room temperature. After washing three times with PBS (5 min), the blocking reaction was performed with 100 mM glycine in PBS for 10 min following 3% BSA in PBS for 30 min at room temperature.
Subsequently cover slips were incubated with mouse anti-alpha tubulin polyclonal primary antibody diluted 1:50 in 1% BSA in PBS at 4° C. over night. After washing the cells three times with PBS (5 min), the cover slips were incubated with Cy3-conjugated goat secondary antibody in 10% goat serum in PBS for 1 h at room temperature. The cells were washed three times with PBS (7 min) prior to mounting in Mowiol and analysed by fluorescence microscopy.

143B.TK−K7gm cells [3] = assay: Induction of megamitochondria by changes of culture medium; format: cell-based, Human; conditions: medium with HCl or lactic acid (pH 6.7-5.3) or 30-180 mM sodium lactate (pH 7.4 maintained); one hour
Description: (§5) The induction of megamitochondria formation was done by the transfer of acidic medium from 143B.TK^− K7 ρ^0 cells and by an artificial acidification of fresh medium with lactic acid, pH 6.0-6.3. Additional changes of culture medium were performed by an acidification of the medium with HCl, addition of 30-180 mM sodium lactate and 1.3-2.0 mM NaOH.
(§6) To test whether megamitochondria can be induced by extrinsic changes of pH value or lactic acid concentration in the culture medium 143B.TK^−K7gm, 143B.TK^−gm and HeLa were incubated with medium complemented with HCl and lactic acid, respectively (pH 6.7-5.3). Additionally, the influence of high concentrations of sodium lactate (30-180 mM) on the megamitochondria formation was determined without changing the pH. A pH value of 6.7-6.8 and a lactate concentration of 30 mM corresponds to the measured values in the analysed cultivation medium of 143B.TK^−K7 cells. Incubation of cells was carried out for one hour with subsequent analyses of mitochondrial morphology in vivo.

143B.TK−gm cells = assay: as above; format: cell-based, Human; conditions: medium with HCl or lactic acid (pH 6.7-5.3) or 30-180 mM sodium lactate (pH 7.4 maintained); one hour
Description: as §5, §6

HeLa cells = assay: as above; format: cell-based; conditions: medium with HCl or lactic acid (pH 6.7-5.3) or 30-180 mM sodium lactate (pH 7.4 maintained); one hour
Description: as §5, §6

[4] = system: 143B.TK−K7gm cells with megamitochondria; assay: Back-formation of megamitochondria by changes of culture medium; format: cell-based, Human; conditions: one hour
Description: Similar experiments were carried out to investigate the back-formation of megamitochondria (FIG. 9). To this end, 143B.TK^−K7 gm cells with megamitochondria were incubated in medium complemented with different additions. Changes of pH value were reached by the addition of 0.04-0.2 mM NaOH into the used culture medium as well as by the addition of HCl and lactic acid, respectively, of values 7.0-5.6 in fresh culture medium. Moreover, the influence of high concentrations of sodium lactate on the back-formation of megamitochondria was analysed by adding 20-210 mM sodium lactate, pH 7.4 into fresh medium without changing the pH value. Treatment of cells with different media was performed for one hour, thereafter the mitochondrial morphology was analysed by fluorescence microscopy.

143B.TK−K7 cells = assay: Mitochondrial membrane potential by JC-1 staining (confocal microscopy); format: cell-based, Human; conditions: 10 μM CCCP for 30 minutes before JC-1; 24 and 62 hours cultivation time
Description: Documentation at 24 hours (A1-A3, B1-B3) and 62 hours (C1-C3, D1-D3) cultivation time by JC-1-staining. The red fluorescence of J-aggregates (A1, B1, C1, D1) as well as the green monomer form (A2, B2, C2, D2) were analysed simultaneously by excitation wavelength of 488 nm. Images A3, B3, C3, D3 show overlays. Calibration bars correspond to 10 μm.
To measure differences in mitochondrial membrane potential between the various stages of megamitochondria formation and control cells the dual emission of the potentiometric dye JC-1 was observed. The cells either were incubated directly with 3 μM JC-1 diluted in the standard culture medium and filtered once with 0.2 μm syringe filter for 30 min at 37° C. or first treated with CCCP (final concentration 10 μM) for 30 min for the comparison of cells without membrane potential. The cells were viewed in vivo with the inverse confocal laser scanning microscope (simultaneous excitation of red and green fluorescence by 488 nm wavelength) to observe local differences in the mitochondrial membrane potential.
To determine the mitochondrial membrane potential during the formation of megamitochondria 143B.TK^−K7 cells were either directly stained with JC-1 […] or incubated with […] CCCP for 30 minutes before. […]

actin cytoskeleton = assay: Staining of actin cytoskeleton by phalloidin in fixed cells; format: cell-based, Human; conditions: 4 mM cytochalasin B for 9-15 hours, 143B.TK−K7gm cells
Description: as §1
For detection of the actin cytoskeleton cells on cover slips treated as indicated were fixed with 3.7% formaldehyde in PBS for 10 min at room temperature and after three washes in PBS for 5 min permeabilized with 0.1% Triton X-100 in PBS for 5 min. After additional washing steps with PBS (5 min) cells were blocked with 1% BSA in PBS for 30 min at room temperature and incubated with 1 unit (5 μl) Alexa Fluor 546 Phalloidin in 1% BSA in PBS for 20 min at room temperature. After washing the cells three times with PBS for 7 min, the cover slips were mounted with Mowiol and analysed with the confocal microscope.
as §4

[5] = 10 μM CCCP, 10 μM valinomycin or 1 μM nigericin for 18 h, 24 h after seeding
[6] = 10 μM nocodazol or 4 mM cytochalasin B for 9-15 hours

| SMILES | formation of megamitochondria (143B.TK−K7gm cells [1]; [5]) | back-formation of megamitochondria (mitochondrial morphology after medium exchange) [2] | induction of megamitochondria (143B.TK−K7gm cells [3]) | induction of megamitochondria (143B.TK−gm cells) | induction of megamitochondria (HeLa cells) | other results |
| --- | --- | --- | --- | --- | --- | --- |
| CO[C@@H]1C[C@@H](C[C@H]2CC[C@H](C)[C@H]([C@@H](C)C(=O)O)O2)O[C@]2(O[C@](C)([C@H]3CC[C@@](C)([C@@H]4O[C@@H]([C@H]5O[C@@](O)(CO)[C@H](C)C[C@@H]5C)C[C@@H]4C)O3)C[C@H]2C)[C@@H]1C [nigericin] | inhibited | comparable to the control cells |  |  |  |  |
| CC(C)[C@@H]1NC(=O)[C@H](C)OC(=O)[C@@H](C(C)C)NC(=O)[C@@H](C(C)C)OC(=O)[C@H](C(C)C)NC(=O)[C@H](C)OC(=O)[C@@H](C(C)C)NC(=O)[C@@H](C(C)C)OC(=O)[C@H](C(C)C)NC(=O)[C@H](C)OC(=O)[C@@H](C(C)C)NC(=O)[C@@H](C(C)C)OC1=O [valinomycin] | led to the formation of megamitochondria with diameters exceeding the control cells | inhibited the back-formation of megamitochondria |  |  |  |  |
| COC(=O)Nc1nc2ccc(C(=O)c3cccs3)cc2[nH]1 [nocodazol] |  |  |  |  |  | formation of megamitochondria (143B.TK−K7gm cells [1]; [6]): no influence of the tubulin cytoskeleton on the formation of megamitochondria; back-formation of megamitochondria [2]: only minor influence on back-formation of megamitochondria; inhibition of tubulin polymerisation (alpha-tubulin staining) (tubulin polymerisation): Complete inhibition of tubulin polymerisation |
| CC(O)C(=O)[O-].[Na+] (centres unmarked) [sodium lactate] |  |  | not possible | not possible | not possible | back-formation of megamitochondria ([4]; fresh medium with 20-210 mM sodium lactate, pH 7.4): led to the back-formation of megamitochondria in all used concentrations |
| N#CC(C#N)=NNc1cccc(Cl)c1 [CCCP] | inhibited | comparable to the control cells |  |  |  | mitochondrial membrane potential (JC-1 red/green fluorescence) (143B.TK−K7 cells): the red fluorescence was clearly less distinct |
| C=C1[C@@H](C)[C@H]2[C@H](Cc3ccccc3)NC(=O)[C@]23OC(=O)/C=C/[C@H](O)CCC[C@@H](C)C/C=C/[C@H]3[C@@H]1O [cytochalasin B] |  |  |  |  |  | formation of megamitochondria (143B.TK−K7gm cells [1]; [6]): prevented formation of megamitochondria; back-formation of megamitochondria [2]: severe influence on megamitochondria back-formation; effectiveness of drug treatment on actin cytoskeleton (phalloidin staining) (actin cytoskeleton): confirming the effectiveness of drug treatment |
| [Na+].[OH-] [NaOH] |  |  |  |  |  | back-formation of megamitochondria ([4]; 1.3 mM NaOH added into the acidic medium): did not lead to the back-formation of megamitochondria; also recorded: did not lead to the back formation of megamitochondria; back-formation of megamitochondria ([4]; 2.0 mM NaOH added into the acidic medium): resulted in a change in mitochondrial morphology from spherical forms to tubules and network-like structures; also recorded: sufficient to induce the back-formation of megamitochondria |
| CC(O)C(=O)O (centres unmarked) [lactic acid] |  |  | led to the formation of megamitochondria | led to the formation of megamitochondria | led to the formation of megamitochondria | back-formation of megamitochondria ([4]; fresh medium acidulated with lactic acid, pH 6.8): the spherical mitochondria changed to a tubular network; back-formation of megamitochondria ([4]; fresh medium acidulated with lactic acid, pH 7.0): resulted in the back-formation of megamitochondria |
| Cl [HCl] |  |  | not possible | not possible | not possible | back-formation of megamitochondria ([4]; fresh medium acidified with HCl, pH 6.0): did not change their form; back-formation of megamitochondria ([4]; fresh medium acidified with HCl, pH 7.0): formed back to a tubular network |
